# Assays:
# Type in all cases: functional
# Staphylococcus aureus = assay: Antibacterial activity against Staphylococcus aureus ATCC 6538 after 24 hr by disk diffusion method
# Pseudomonas aeruginosa = assay: Antibacterial activity against Pseudomonas aeruginosa ATCC 27853 after 24 hr by disk diffusion method
# Escherichia coli = assay: Antibacterial activity against Escherichia coli ATCC 25922 after 24 hr by disk diffusion method
SMILES,inhibition zone (IZ) (Staphylococcus aureus) [mm],inhibition zone (IZ) (Pseudomonas aeruginosa) [mm],inhibition zone (IZ) (Escherichia coli) [mm]
COc1cc(/C=N/n2c(-c3ccccc3)nc3cc(Cl)ccc3c2=O)ccc1O,15,5,21
C/C(=N\n1c(-c2ccccc2)nc2cc(Cl)ccc2c1=O)c1ccc(Cl)cc1,15,4,22
C/C(=N\n1c(-c2ccccc2)nc2cc(Cl)ccc2c1=O)c1ccc(O)cc1,15,4,22
O=C(O)c1cn(C2CC2)c2cc(N3CCNCC3)c(F)cc2c1=O [CIPROFLOXACIN],17,18,–

# From ChEMBL document CHEMBL3044987, “7-chloro-3-(substituted benzylidene/phenyl ethylidene amino)-2-phenylquinazolin-4(3H)-ones: synthesis, antimicrobial and antitubercular evaluation” (2012)
